{
  "source": "patent US10988459B2",
  "about": "(priority 2015, dated 2021)",
  "note": "pKi: −log10 of the molar value.",
  "data": [
    {"target": "human RIP1 kinase domain (2-375) (Homo sapiens (Human), UniProt Q13546)", "sequence (Q13546 2-375)": "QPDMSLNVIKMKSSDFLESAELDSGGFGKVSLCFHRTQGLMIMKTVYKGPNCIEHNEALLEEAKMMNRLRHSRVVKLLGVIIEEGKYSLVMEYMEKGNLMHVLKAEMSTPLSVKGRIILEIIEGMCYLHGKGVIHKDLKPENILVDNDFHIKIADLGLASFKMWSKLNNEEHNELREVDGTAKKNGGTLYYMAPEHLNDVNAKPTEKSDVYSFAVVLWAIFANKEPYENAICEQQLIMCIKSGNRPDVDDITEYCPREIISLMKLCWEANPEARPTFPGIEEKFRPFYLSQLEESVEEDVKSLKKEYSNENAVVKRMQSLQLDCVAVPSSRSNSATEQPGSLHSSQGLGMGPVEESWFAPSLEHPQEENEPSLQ", "assay": "biochemical", "format": "biochemical", "details": "Table 1; apparent Ki (Morrison tight-binding fit); 50 nM RIP1 kinase domain, 50 uM ATP, 2 hours incubation; read-out: RIP1 Ki", "outline": "(§1)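 50 nM purified kinase domain from baculovirus-infected insect cells, incubated 2 h with compound in 50 mM Hepes pH 7.5, 30 mM MgCl2, 1 mM DTT, 50 uM ATP, 0.002% Brij-35, 0.5% DMSO. ADP formation read by Transcreener FP at 633 nm excitation. Ki^app fitted with the Morrison tight-binding equation.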", "values": [
      {"smiles": "CN1C(=O)[C@@H](NC(=O)c2n[nH]c3c2CCC(c2ccccc2)C3)COc2ccccc21", "note": "(stereo partly drawn) [Example 12, N-(5-methyl-4-oxo-2,3,4,5-tetrahydrobenzo[b][1,4]oxazepin-3-yl)-6-phenyl-4,5,6,7-tetrahydro-1H-indazole-3-carboxamide]", "pKi": "< 5.51"},
      {"smiles": "O=C(N[C@H]1CCc2cc(Cl)ccc2NC1=O)c1n[nH]c2c1CCC2", "note": "[Example 49, (S)-N-(7-chloro-2-oxo-2,3,4,5-tetrahydro-1H-benzo[b]azepin-3-yl)-1,4,5,6-tetrahydrocyclopenta[c]pyrazole-3-carboxamide]", "pKi": 5.12},
      {"smiles": "C[C@H]1CCc2noc(C(=O)N[C@H]3COc4ccccc4N(C)C3=O)c2C1", "note": "[Example 69, (S)-5-methyl-N-((S)-5-methyl-4-oxo-2,3,4,5-tetrahydrobenzo[b][1,4]oxazepin-3-yl)-4,5,6,7-tetrahydrobenzo[c]isoxazole-3-carboxamide]", "pKi": 7.07},
      {"smiles": "CN1C(=O)C(NC(=O)c2nnc(Cc3ccccc3)[nH]2)CCn2nc(C3CC3)cc21", "note": "(stereo not drawn) [Example 29, 5-benzyl-N-(2-cyclopropyl-4-methyl-5-oxo-7,8-dihydro-6H-pyrazolo[1,5-a][1,3]diazepin-6-yl)-4H-1,2,4-triazole-3-carboxamide]", "pKi": 6.93}
    ]},
    {"target": "human RIP1 kinase domain (2-375) (Homo sapiens (Human), UniProt Q13546)", "assay": "biochemical", "format": "biochemical", "details": "Table 3; apparent Ki (Morrison tight-binding fit); 50 nM RIP1 kinase domain, 50 uM ATP, 2 hours incubation; read-out: Ki", "outline": "as §1", "values": [
      {"smiles": "CN1C(=O)[C@@H](NC(=O)c2n[nH]c3ccc(Cl)cc23)COc2ccccc21", "note": "[Example 338, (S)-5-chloro-N-(5-methyl-4-oxo-2,3,4,5-tetrahydrobenzo[b][1,4]oxazepin-3-yl)-1H-indazole-3-carboxamide]", "pKi": 7.68}
    ]},
    {"target": "human RIP1 kinase domain (2-375) (Homo sapiens (Human), UniProt Q13546)", "assay": "biochemical", "format": "biochemical", "details": "Table 5; apparent Ki (Morrison tight-binding fit); 50 nM RIP1 kinase domain, 50 uM ATP, 2 hours incubation; read-out: Ki", "outline": "as §1", "values": [
      {"smiles": "CN1C(=O)[C@@H](NC(=O)c2nc3n(n2)CCN(C)C3c2ccccc2)COc2ccccc21", "note": "(stereo partly drawn) [Example 786, 7-methyl-N-[(3S)-5-methyl-4-oxo-2,3-dihydro-1,5-benzoxazepin-3-yl]-8-phenyl-6,8-dihydro-5H-[1,2,4]trizolo [1,5-a]pyrazine-2-carboxamide]", "pKi": 6.95},
      {"smiles": "CN1C(=O)[C@@H](NC(=O)c2cn(Cc3ccccc3)cn2)CCn2nccc21", "note": "(single isomer, unassigned) [Example 750]", "pKi": 7.18},
      {"smiles": "CC[C@]1(C)OCc2cnc(C(=O)N[C@H]3COc4ccccc4N(C)C3=O)cc21", "note": "(single isomer, unassigned) [Example 764]", "pKi": 6.57},
      {"smiles": "CCn1cc(-c2cc3n(n2)CCC(NC(=O)c2ncn(Cc4ccccc4)n2)C(=O)N3C)cn1", "note": "(single isomer, unassigned) [Example 698, 1-benzyl-N-[2-(1-ethylpyrazol-4-yl)-4-methyl-5-oxo-7,8-dihydro-6H-pyrazolo[1,5-a][1,3]diazepin-6-yl]-1,2,4-triazole-3-carboxamide]", "pKi": 7.57}
    ]},
    {"target": "human RIP1 kinase domain (2-375) (Homo sapiens (Human), UniProt Q13546)", "assay": "biochemical", "format": "biochemical", "details": "human RIP1 kinase domain (2-375), 50 uM ATP, 2 hours incubation, Transcreener ADP assay; read-out: RIP1 Ki", "outline": "as §1", "values": [
      {"smiles": "CN1C(=O)C(NC(=O)c2n[nH]c3c2C[C@@H](C(F)(F)F)CC3)CCn2ccnc21", "note": "(stereo partly drawn) [Example 176, (5S)—N-(9-methyl-8-oxo-6,7,8,9-tetrahydro-5H-imidazo[1,2-a][1,3]diazepin-7-yl)-5-(trifluoromethyl)-4,5,6,7-tetrahydro-1H-indazole-3-carboxamide]", "pKi": 5.85},
      {"smiles": "CN1C(=O)[C@@H](NC(=O)c2ncn(Cc3ccccc3)n2)CCn2ccnc21", "note": "[Example 151, (S)-1-benzyl-N-(9-methyl-8-oxo-6,7,8,9-tetrahydro-5H-imidazo[1,2-a][1,3]diazepin-7-yl)-1H-1,2,4-triazole-3-carboxamide]", "pKi": 7.58},
      {"smiles": "CN1C(=O)[C@@H](NC(=O)c2nnc(Cc3ccccc3)[nH]2)COc2c1cnn2C", "note": "[Example 181, (S)-5-benzyl-N-(1,4-dimethyl-5-oxo-4,5,6,7-tetrahydro-1H-pyrazolo[3,4-b][1,4]oxazepin-6-yl)-4H-1,2,4-triazole-3-carboxamide]", "pKi": 7.03}
    ]},
    {"target": "human RIP1 kinase domain (2-375) (Homo sapiens (Human), UniProt Q13546)", "assay": "biochemical", "format": "biochemical", "details": "human RIP1 kinase domain (2-375), Transcreener ADP assay, 50 uM ATP, 2 hours incubation; read-out: RIP1 Ki", "outline": "as §1", "values": [
      {"smiles": "Cc1ncn2c1N(C)C(=O)C(NC(=O)c1n[nH]c(Cc3ccccc3)n1)CC2", "note": "(stereo not drawn) [Example 226, 5-benzyl-N-(1,9-dimethyl-2-oxo-2,3,4,5-tetrahydro-1H-imidazo[1,5-a][1,3]diazepin-3-yl)-1H-1,2,4-triazole-3-carboxamide]", "pKi": 6.74},
      {"smiles": "CN1C(=O)C(NC(=O)c2cn(Cc3ccccc3)nn2)CCn2nc(C3CCOCC3)cc21", "note": "(stereo not drawn) [Example 237, 1-benzyl-N-(4-methyl-5-oxo-2-(tetrahydro-2H-pyran-4-yl)-5,6,7,8-tetrahydro-4H-pyrazolo[1,5-a][1,3]diazepin-6-yl)-1H-1,2,3-triazole-4-carboxamide]", "pKi": 5.85},
      {"smiles": "CN1C(=O)[C@H](NC(=O)c2ncn(Cc3ccc(F)c(F)c3)n2)CCn2nc([C@H]3CC3(F)F)cc21", "note": "[Example 314, 1-(3,4-difluorobenzyl)-N—((R)-2-((R)-2,2-difluorocyclopropyl)-4-methyl-5-oxo-5,6,7,8-tetrahydro-4H-pyrazolo[1,5-a][1,3]diazepin-6-yl)-1H-1,2,4-triazole-3-carboxamide]", "pKi": 7.36},
      {"smiles": "Cc1cc2n(n1)CCC(NC(=O)c1ncn(CCC(F)(F)F)n1)C(=O)N2C", "note": "(stereo not drawn) [Example 250, N-(2,4-dimethyl-5-oxo-5,6,7,8-tetrahydro-4H-pyrazolo[1,5-a][1,3]diazepin-6-yl)-1-(3,3,3-trifluoropropyl)-1H-1,2,4-triazole-3-carboxamide]", "pKi": 6.00}
    ]},
    {"target": "human RIP1 kinase domain (2-375) (Homo sapiens (Human), UniProt Q13546)", "assay": "biochemical", "format": "biochemical", "details": "tight-binding apparent inhibition constant; human RIP1 kinase domain (2-375) 50 nM, 50 uM ATP, 2 hours; read-out: Ki", "outline": "as §1", "values": [
      {"smiles": "CN1C(=O)[C@@H](NC(=O)c2ncn(Cc3ccccc3)n2)CCn2nc([C@H]3CC3(F)F)cc21", "note": "(stereo in doubt) [Example 679, 1-benzyl-N-[rac-(6S)-4-methyl-5-oxo-2-[rac-(1R)-2,2-difluorocyclopropyl]-7,8-dihydro-6H-pyrazolo[1,5-a] [1,3diazepin-6-yl]-1,2,4-triazole-3-carboxamide]", "pKi": 7.67},
      {"smiles": "Cc1cccnc1Cn1cnc(C(=O)N[C@H]2CCn3nc(C4CC4)cc3N(C)C2=O)n1", "note": "[Example 648]", "pKi": 6.55},
      {"smiles": "CN1C(=O)C(NC(=O)c2ncn(Cc3ccccc3)n2)CCn2nc(CC3CC3)cc21", "note": "(stereo not drawn) [Example 456, 1-Benzyl-N-(2-(cyclopropylmethyl)-4-methyl-5-oxo-5,6,7,8-tetrahydro-4H-pyrazol[1,5-a][1,3]diazepin-6-yl)-1H-1,2,4-triazole-3-carboxamide]", "pKi": 7.29},
      {"smiles": "Cc1cc2n(n1)CC[C@H](NC(=O)c1ncn(CC3CC(C)C3)n1)C(=O)N2C", "note": "(stereo in doubt) [Example 491, 1-[(3-methylcyclobutyl)methyl]-N-(6S)-2,4-dimethyl-5-oxo-7,8-dihydro-6H-pyrazol[1,5-a][1,3]diazepin-6-yl-1,2,4-triazole-3-carboxamide]", "pKi": 7.43},
      {"smiles": "CN1C(=O)[C@@H](NC(=O)c2nc3n(n2)C(c2nccn2C)CC3)COc2ccccc21", "note": "(stereo partly drawn) [Example 361, 5-(1-methylimidazol-2-yl)-N-[(3S)-5-methyl-4-oxo-2,3-dihydro-1,5-benzoxazepin-3-yl]-6,7-dihydro-5H-pyrrolo[1,2-b][1,2,4]triazole-2-carboxamide]", "pKi": 6.29},
      {"smiles": "Cc1cc2n(n1)CC[C@H](NC(=O)c1ncc3cnn(C4CCCC4)c3n1)C(=O)N2C", "note": "[Example 543, 1-cyclopentyl-N-[(6S)-2,4-dimethyl-5-oxo-7,8-dihydro-6H-pyrazolo[1,5-a][1,3]diazepin-6-yl]pyrazolo[3,4-d]pyrimidine-6-carboxamide]", "pKi": 7.17},
      {"smiles": "O=C(N[C@H]1COc2cc(F)cc(F)c2NC1=O)c1nc2n(n1)CCC2c1ccccc1", "note": "(stereo in doubt) [Example 625, (7S)-7-phenyl-N-[(3S)-6,8-difluoro-4-oxo-3,5-dihydro-2H-1,5-benzoxazepin-3-yl]-6,7-dihydro-5H-pyrrolo[1,2-b][1,2,4]triazole-2-carboxamide]", "pKi": 6.35},
      {"smiles": "Cc1cc2n(n1)CC[C@H](NC(=O)c1ncn(Cc3cccc(Cl)c3Cl)n1)C(=O)N2C", "note": "[Example 472, 1-[(2,3-dichlorophenyl)methyl]-N-(6S)-2,4-dimethyl-5-oxo-7,8-dihydro-6H-pyrazolo[1,5-a][1,3]diazepin-6-yl-1,2,4-triazole-3-carboxamide]", "pKi": 8.29},
      {"smiles": "CN1C(=O)[C@@H](NC(=O)c2nc3n(n2)CCC32CCOCC2)COc2ccccc21", "note": "[Example 634, N-[(3S)-5-methyl-4-oxo-2,3-dihydro-1,5-benzoxazepin-3-yl]spiro[5,6-dihydropyrrolo[1,2-b][1,2,4]triazole-7,4′-tetrahydropyran]-2-carboxamide]", "pKi": 6.62},
      {"smiles": "C=C(C)c1cc2n(n1)CCC(NC(=O)c1ncn(Cc3ccccc3)n1)C(=O)N2C", "note": "(racemic) [Example 365, 1-benzyl-N-(2-isopropenyl-4-methyl-5-oxo-7,8-dihydro-6H-pyrazolo[1,5-a][1,3]diazepin-6-yl)-1,2,4-triazole-3-carboxamide]", "pKi": 7.51},
      {"smiles": "CN1C(=O)[C@@H](NC(=O)c2ncn(Cc3ccc(Cl)cc3)n2)CCn2nc(C(F)(F)F)cc21", "note": "[Example 532]", "pKi": 7.62},
      {"smiles": "C[C@@H](c1ccc(F)cc1)n1cnc(C(=O)N[C@H]2CCn3nc(C4CC4)cc3N(C)C2=O)n1", "note": "(racemic) [Example 670, N-[rac-(6S)-2-cyclopropyl-4-methyl-5-oxo-7,8-dihydro-6H-pyrazolo[1,5-a][1,3]diazepin-6-yl]-1-[rac-(1S)-1-(4-fluorophenyl)ethyl]-1,2,4-triazole-3-carboxamide]", "pKi": 7.58},
      {"smiles": "Cc1cc2n(n1)CC[C@H](NC(=O)c1cc3c(cn1)COC31CCCOC1)C(=O)N2C", "note": "(stereo partly drawn) [Example 545, N-[(6S)-2,4-dimethyl-5-oxo-7,8-dihydro-6H-pyrazolo[1,5-a][1,3]diazepin-6-yl]spiro[3H-furo[3,4-c]pyridine-1,3′-tetrahydropyran]-6-carboxamide]", "pKi": 5.68},
      {"smiles": "CN1C(=O)[C@@H](NC(=O)c2nc3n(n2)CCOC32CCCC2)COc2ccccc21", "note": "[Example 562, N-[(3S)-5-methyl-4-oxo-2,3-dihydro-1,5-benzoxazepin-3-yl]spiro[5,6-dihydro-[1,2,4]triazolo[5,1-c][1,4]oxazine-8,1′-cyclopentane]-2-carboxamide]", "pKi": 7.70}
    ]}
  ]
}
